Reference: patent publication US8334253B2, “Cosmetic and dermatological formulations of MNTF peptides” (Dermacare Neuroscience Institute, priority 2008, dated 2012)

Test system: hyaluronic acid levels in adult human dermal fibroblast (aHDF) conditioned media
Assay: Hyaluronic acid in fibroblast-conditioned medium (HA-ELISA)
Assay type: cell-based
Settings: positive control, 5 ng/ml, 96 h
Excerpt: Hyaluronic acid (hyaluronan, HA), a naturally occurring carbohydrate polymer is a key component of connective, epithelial and neural tissues. HA participates in hydrodynamics, movement and proliferation of cells. This test was designed to determine whether a sample of palmitylated and non-palmitylated MNTF hexapeptide has an effect on hyaluronic acid levels in the adult human dermal fibroblast (aHDF) conditioned media.
Adult HDF (facial, passage 2, Cell Applications, San Diego, Calif. cat.#106-05A lot#1392) were plated in high glucose phosphate-free DMEM supplemented with 5% cosmic serum from Hyclone, Utah) at 6,000 cells per well and test materials were added the following day. Test materials were: Pal-Hexapeptide (palmitylated SEQ ID NO:2 as a lyophilized powder labeled APC 341055, lot V08150A1, received from DermaCare Neuroscience Institute), type I sterile water (negative control) and basic fibroblast growth factor (bFGF, positive control). Pal-Hexapeptide was dissolved in water at 20 mg/ml. Final concentrations tested were: 400, 200, 100, 50 and 25 ug/ml for DNP and 5 ng/ml for bFGF (plate 507). After 96 h, cell culture conditioned media were collected and 100 ul aliquotes were used for the HA assay. HA assay was performed using Hyaluronan Enzyme-Linked Immunosorbent Assay Kit (HA-ELISA, cat. #K-1200) from Echelon (Salt Lake City, Utah). The HA output was measured by following the generation of a chromophoric reaction product in 96 well plate, with the use of a BioRad microplate reader at 410 nm and the effect of the test materials was determined using the formula: Absorbance 410 (sample)/Absorbance 410 (Zero HA)×100.
Adult HDF (facial, passage 2, Cell Applications, San Diego, Calif. cat.#106-05A lot#1392) were plated in high glucose phosphate-free DMEM supplemented with 5% cosmic serum from Hyclone, Utah) at 6,000 cells per well and test materials were added the following day. Test materials were: hexapeptide (SEQ ID NO:2 (non-palmitylated), lyophilized powder lot #D294, received from DermaCare Neuroscience Institute), type I sterile water (negative control) and basic fibroblast growth factor (bFGF, positive control). Pal-Hexapeptide was dissolved in water at 20 mg/ml. Final concentrations tested were: 2000, 1000, 500 and 250 ug/ml for hexapeptide and 5 ng/ml for bFGF (plate 507). After 96 h, cell culture conditioned media were collected and 100 ul aliquotes were used for the HA assay. HA assay was performed using Hyaluronan Enzyme-Linked Immunosorbent Assay Kit (HA-ELISA, cat. #K-1200) from Echelon (Salt Lake City, Utah). The HA output was measured by following the generation of a chromophoric reaction product in 96 well plate, with the use of a BioRad microplate reader at 410 nm and the effect of the test materials was determined using the formula: Absorbance 410 (sample)/Absorbance 410 (Zero HA)×100.

## basic fibroblast growth factor [bFGF, reference compound]
  stimulation of hyaluronic acid in the fibroblast-conditioned medium: moderately stimulatory activity
